Drawing on ChEMBL document CHEMBL4406899, “Design, synthesis, and biological evaluation of 2-amino-N-(2-methoxyphenyl)-6-((4-nitrophenyl)sulfonyl)benzamide derivatives as potent HIV-1 Vif inhibitors” (Bioorg Med Chem Lett, 2019), this text covers EC50, CC50 and selectivity ratio for 18 molecules.

The test system of data set [1] is Human immunodeficiency virus 1. Kind of data set: Antiviral activity against HIV1 infected in human H9 cells assessed as decrease in p24 antigen production incubated for 7 days by ELISA. To be noted: Human immunodeficiency virus 1, H9, 168 h. The format is functional, organism-based. On the technique in general: An ELISA detects its analyte on a solid surface through an enzyme-linked reagent.

A short description of data set [2]: Cytotoxicity against human H9 cells assessed as reduction in cell viability incubated for 7 days by MTT assay. The format is cell-based.
Data set [3] can be described thus: Selectivity index, ratio of CC50 for human H9 cells to EC50 for antiviral activity against HIV-1. The settings on record: read-out: Ratio CC50/EC50. In kind it is toxicity.

The term EC50 denotes the midpoint of the concentration-response curve. A word on the CC50: it is the concentration that lowers cell viability or growth by half.

For `COc1ccccc1NC(=O)c1c(N)cccc1S(=O)(=O)c1ccc(C(F)(F)F)cc1`, the concentration for a half-maximal effect (EC50) in data set [1] amounted to 4.62 µM. The 50% cytotoxic concentration (CC50) at 168 h in data set [2] amounted to 444 µM. In addition, the selectivity ratio in data set [3] was 96.5.
As for `COc1ncccc1NC(=O)c1c(N)cccc1S(=O)(=O)c1ccc([N+](=O)[O-])cc1`, the 50% effective concentration (EC50) in data set [1] came to 228 µM.
With `COc1ccccc1NC(=O)c1c(N)cccc1S(=O)(=O)c1ccc(F)cc1`, the EC50 in data set [1] was found to be 12.3 µM. Moreover, the CC50 at 168 h in data set [2] stood at 499 µM. In addition, in data set [3], the selectivity ratio is 53.7.
With `COc1ccccc1NC(=O)c1c(N)cccc1Sc1ccc(F)cc1`, in data set [1], the EC50 came out at 44.8 µM. The CC50 at 168 h in data set [2] was 543 µM. Further, the selectivity ratio in data set [3] was found to be 15.6.
`COc1ccccc1NC(=O)c1c(N)cccc1S(=O)(=O)c1cc(C)cc(C)c1`: in data set [1], the EC50 was 244 µM.
Consider `COc1ncccc1NC(=O)c1c(N)cccc1Sc1ccc([N+](=O)[O-])cc1`, for which the EC50 in data set [1] came out at 25.9 µM. In addition, in data set [2], the CC50 at 168 h was found to be 182 µM. Besides, the selectivity ratio in data set [3] was 7.03.
On to `COc1ccccc1NC(=O)c1c(N)cccc1Sc1ccc([N+](=O)[O-])cc1`, for which the concentration giving a half-maximal response (EC50) in data set [1] came out at 2.12 µM. For the same molecule, in data set [2], the CC50 at 168 h is 462 µM. The selectivity ratio in data set [3] stood at 263.
Regarding `Nc1cccc(Sc2ccc([N+](=O)[O-])cc2)c1C(=O)Nc1ccccc1O`, the EC50 in data set [1] amounted to 9.8 µM. Further, the CC50 at 168 h in data set [2] is 153 µM. The selectivity ratio in data set [3] was 15.6.
For the molecule `Nc1ccccc1NC(=O)c1c(N)cccc1Sc1ccc([N+](=O)[O-])cc1`, the half-maximal effective concentration (EC50) in data set [1] was 15.1 µM. The CC50 at 168 h in data set [2] stood at 427 µM. For the same molecule, the selectivity ratio in data set [3] was 28.3.
Turning to `Nc1cccc(Sc2ccc([N+](=O)[O-])cc2)c1C(=O)Nc1ccccc1I`, the EC50 in data set [1] is 125 µM. Further, the CC50 at 168 h in data set [2] is 407 µM. The selectivity ratio in data set [3] came to 3.26.
On to `Nc1cccc(S(=O)(=O)c2ccc([N+](=O)[O-])cc2)c1C(=O)Nc1ccccc1I`, for which the concentration giving a half-maximal response (EC50) in data set [1] came to 30.9 µM. For the same molecule, in data set [2], the CC50 at 168 h stood at 382 µM. For the same molecule, the selectivity ratio in data set [3] turned out to be 12.4.
Regarding `COc1ccccc1NC(=O)c1c(N)cccc1S(=O)(=O)c1ccc(C(=O)O)cc1`, in data set [1], the 50% effective concentration (EC50) was determined as 235 µM.
The same measure, in the same setting: with `COc1ccccc1NC(=O)c1c(N)cccc1Sc1ccc(C(=O)O)cc1` the figure was 252 µM.
Take `COc1ccccc1NC(=O)c1c(N)cccc1Sc1cc(C)cc(C)c1`: the EC50 in data set [1] amounted to 9.6 µM. Further, the CC50 at 168 h in data set [2] is 181 µM. In addition, the selectivity ratio in data set [3] came out at 18.9.
As to `COc1ccccc1NC(=O)c1c(N)cccc1Sc1ccc(C(F)(F)F)cc1`, in data set [1], the 50% effective concentration (EC50) is 24.2 µM. Further, the 50% cytotoxic concentration (CC50) at 168 h in data set [2] came to 352 µM. Also, the selectivity ratio in data set [3] was determined as 14.6.
The matching figures for `CS(=O)(=O)Oc1ccccc1NC(=O)c1c(N)cccc1Sc1ccc([N+](=O)[O-])cc1`: 79.9 µM, 422 µM and 5.28.
With `COc1ccccc1NC(=O)c1c(N)cccc1Sc1ccncc1`, the concentration for a half-maximal effect (EC50) in data set [1] was 176 µM. In addition, the CC50 at 168 h in data set [2] was determined as 569 µM. Also, the selectivity ratio in data set [3] worked out at 3.23.
Turning to `COc1ccc(NC(=O)c2c(N)cccc2Sc2ccc([N+](=O)[O-])cc2)c(OC)c1`, in data set [1], the EC50 turned out to be 20.3 µM. In data set [2], the cytotoxic concentration (CC50) at 168 h was 82.5 µM. Also, the selectivity ratio in data set [3] came out at 4.06.
